Measured values published in patent publication US20060111335A1, “Photoactivated anti-viral and anti-cancer agent” (priority 2002, published 2006).

Columns and labels:
cells = experiment: Phototoxicity, summary statement of Example XII; assay type: cell-based
SINV genomic RNA = experiment: Infectivity of genome RNA from treated SINV transfected into BHK cells, plaque assay; assay type: cell-based, Sindbis virus; details: irradiated 60 minutes, >330 nm
Experimental: Photolysis with SINV. DPPZPHEN/SINV solutions were prepared by adding a 0.3 mL aliquot of a 600 μM DPPZPHEN stock solution in PBS to 3 mL of purified virus at a concentration of 7-8 log10 pfu/mL and bringing the total volume to 4 mL. The DPPZPHEN/SINV solutions were incubated for 2 hours prior to irradiation, following which 3 mL of the solution was irradiated in quartz cuvettes with 355 nm light under a constant stream of nitrogen with stirring Aliquots of 100 μL were withdrawn over time and analyzed for virus infectivity. The inactivation rate constant was calculated using simple hit theory (Hiatt, Bacteriol. Rev., 28:150-163 (1964); Houghtaling et al., Photochem. Photobiol., 71:20-28 (2000)). For the studies measuring infectivity of genome RNA, a 6.9 μL aliquot of 0.623 M DPPZPHEN stock solution in DMSO was added to a 100 μL of TE12 wild type […] solution (10 log10 pfu/mL) to obtain a 40 mM DPPZPHEN/virus solution. Aliquots of 50 μL were placed into 250 μL inserts, incubated for 2 hours, and either kept in the dark or irradiated for 60 minutes with light >330 nm. At the completion of the experiment all the samples were diluted with 6 mL 1×PBS buffer and precipitated for 2 hours at 4° C. with 10% PEG+NaCl (200 mM). […]

cell membrane = experiment: Cell uptake / passage through the cell membrane
Experimental: OCTBP uptake by KB cells. 11 mg of OCTBP was dissolved in 40 mL of PBS buffer. The solution was vortex stirred for 5 minutes to completely dissolve the solid. The solution was sterile filtered through a 0.2μ nylon syringe filter. The concentration of the solution was determined by measuring the UV absorption at 353 nm (ε353nm=1565 M^−1cm^−1).
Once the cells were 75% confluent media was decanted from the flasks and 8 mL of drug solutions were added to three flasks and 8 mL of PBS buffer solution was added to the control flask. The flasks were incubated at 37° C. for 15, 30 and 45 minutes. Control flask was incubated for 45 minutes. When the flasks were removed, they were washed with 6×10 mL of PBS buffer solution. All the liquid was carefully decanted from the flasks. 1 mL of lysing buffer (1% triton X-100) was added to each of the four flasks. The walls of the flasks were rinsed using disposable pipettes. Once all the contents of the flasks were placed into a 1.5 mL disposable centrifuge tubes (each flask yielded ˜1.2 mL), the tubes were centrifuged at 6000 rpm and at 4° C. for 30 minutes on the Fisher Model 59V high-speed centrifuge. BCA Assay was done to establish the amount of cells in each flask.
Rh content of each flask was determined using an inductively coupled plasma (ICP) instrument (AtomScan16, Thermo Elemental, Franklin, Mass.). From each centrifuge tube 1 mL was pipetted and 370 μL of concentrated HCl was added to form a 10% solution. The samples were heated in a hot water bath at 70° C. for 30 minutes. The samples were centrifuged again and the supernatant liquid was diluted to 8 mL by adding nano-pure water. The samples were analyzed for Rh content by ICP.

KB cells = experiment: Phototoxicity to KB tumor cells, MTT assay; details: dark, zero time point
Experimental: Photolysis with Tumor Cells. […] At the beginning of an experiment media was removed from all plates and the cells were washed with 1 mL of PBS or Hank's salt solution. Drug solution (2 mL) or buffer solution (2 mL) was added to each dish. […] Cells were incubated, with or without metal complex, for 4 hours. After incubation, the solutions were removed from the dishes and the dishes were washed with 1 mL of PBS or Hank's salt solution. A fresh 1 mL of PBS or Hank's salt solution was added to each dish and these were placed on a turntable that sat on the top part of the photolysis chamber. […] The plates were then incubated for 40-48 hours before a determination of the extent of cell toxicity by MTT assay.
Cells were incubated in 75 cm^2 culture flasks. They were grown in Dulbecco's Modified Eagles Medium (D-MEM) supplemented with 10% heat inactivated fetal bovine serum (FBS), 1% L-glutamine-penicillin-streptomycin and 1% amphotericin-B. When cells were not plated for use in an experiment, they were transferred when they were 75-100% confluent using the following procedure. Media was decanted from the flask. Cells were rinsed 1-2 times with 10 mL of Hank's Balanced salt solution. […] Trypsin-EDTA was then decanted and the cells were released from the wall of the flask by tapping the side of the flask. Released cells were suspended in 5 mL media and 1 mL of this suspension was placed in a new culture flasks containing 20 mL of fresh media. The remaining cells were discarded. A culture flask can be used for 3 transfers.
Usually 16-24 hours before a photolysis experiment, cells were plated in 35×10 mm tissue culture dishes and incubated at 37° C. until the experiment was begun. Cells were about 75-100% confluent in the 75 cm^2 culture flask when plated. After being washed and released from the flask as described above, cells were suspended in 40 mL media and 1.5 mL of suspension was placed in each dish.
The concentration of the solution was 70 μM.
The cell dishes were incubated with drug or Hanks balanced salt solution (1 mL) for 3 hours. After incubation, solutions were decanted from the plates and 1 mL of Hank's Balanced salt solution were placed in each. […] Following photolysis, Hank's Balanced salt solutions were decanted and 1 mL of fresh media was placed in each plate.
Plates were incubated for 65 hours and then analyzed for cell survival by MT assay. 5 mg/mL MTT solution in water was prepared and 100 μL of this solution was added to each plate and the plates were incubated for 1.5 hours. Purple crystals formed from live cells. Media was gently removed from plates using a Pasteur pipette, the purple crystals that remained at the bottom of the dish were dissolved in 6 mL of isopropanol.
Phototoxicity studies with long wavelength light (>400 nm). […]

CT DNA = experiment: Photolysis with calf thymus DNA: rhodium covalently bound to DNA; assay type: binding; details: irradiation >330 nm
Experimental: General. The quantity of DNA was determined by the Burton assay (Burton, Biochem. J., 62:315-322 (1956)), and its rhodium content was quantitated using flame atomic absorption spectroscopy (AA). The equilibrium constant for interaction between DPPZPHEN and CT-DNA in the dark was calculated from UV-Vis absorption titration measurements at 380 nm (Wolfe et al., Biochem., 26:6392-6396 (1987); Schemel et al., Biopolymers, 10:465-480 (1971)). Cell viability was determined using the MTT assay (Denizot et al., J. Immunol. Methods, 89:271-277 (1986)). SINV was purified on sucrose gradients as previously described (Owen et al., J. Virol., 70:2757-2763 (1996)).
Photolysis with Calf Thymus DNA (CT DNA). Solutions consisting of 1 mL aliquots of 0.58 mM DPPZPHEN and 2.7 mg/mL CT DNA were irradiated with λ>330 nm light. After irradiation, the solutions were purified by exhaustive dialysis and three cycles of precipitation and resuspension. The DNA and Rh content were determined and/or the DNA was utilized in size exclusion chromatography experiments (Mahnken et al., J. Am. Chem. Soc., 114:9253-9265 (1992)).

GN4 cells = experiment: Phototoxicity to GN4 tumor cells, MTT assay; assay type: cell-based, canine; details: dark, zero time point
Experimental: Photolysis with Tumor Cells.
Media was decanted from the flask. […] Trypsin-EDTA was then decanted and the flask was incubated at 37° C. for 8 minutes. […] Released cells were suspended in 5 mL of media and shaken well. […] The remaining cells were discarded.
Cells were plated, incubated with the drug, and photolysis was conducted as for the KB cell lines.

[1] = Reversed phase HPLC elution on C8 column as measure of hydrophobicity; assay type: physicochemical; details: 45% acetonitrile in 100 mM ammonium acetate pH 5.4
Experimental: Reversed phase high performance liquid chromatography (RP-HPLC) was carried out on C8 columns. Compounds were tested using 20%, 30% and 45% acetonitrile in 100 mM ammonium acetate at pH 5.4 for elution on a C8 column, with the intention of achieving an elution time of about 15 minutes. It was expected that the more hydrophobic a compound, the higher the acetonitrile content one would need for the eluent.

[Cl-].[Cl][Rh+]12([Cl])([N]3C=CC=c4ccc5c(c43)[N]1C=CC=5)[N]1C=CC=c3c1c1c(c4nc5ccccc5nc34)=CC=C[N]12 [DPPZPHEN, cis-dichloro(dipyrido[3,2a-2′3′c]phenazine)(1,10-phenantroline) rhodium(III) chloride]
phototoxicity (cells): are phototoxic
plaque formation in cells that received RNA from virus irradiated with compound (SINV genomic RNA): no plaque formation
ability to pass through the cell membrane (cell membrane): able to pass through the cell membrane
cell toxicity in the absence of light (KB cells): no appreciable degree of cell toxicity
bases per bound molecule of Rh (CT DNA): ~18 bases
cell toxicity in the absence of light (GN4 cells): no appreciable degree of cell toxicity
elution time [1]: about 15 minutes
